Reference: ChEMBL document CHEMBL1201862, “PubChem BioAssay data set” (2004)
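48-hour exposure; five concentrations; linearly interpolated endpoints. The concentration for 50% growth inhibition is given as GI50.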 The source made the active and inactive calls. No stated cut-off is given here; in the data, active = GI50 up to about 1.1 µM and inactive = higher.

Tests used:
Test in all cases: NCI-60 cell line screen, 48 h
A498 = test system: A498
A549 = test system: A549
ACHN = test system: ACHN
BT-549 = test system: BT-549
CAKI-1 = test system: CAKI-1
CCRF-CEM = test system: CCRF-CEM
COLO 205 = test system: COLO 205
DU-145 = test system: DU-145
EKVX = test system: EKVX
HCC 2998 = test system: HCC 2998
HCT-116 = test system: HCT-116
HCT-15 = test system: HCT-15
HL-60 = test system: HL-60
HOP-62 = test system: HOP-62
HOP-92 = test system: HOP-92
HT-29 = test system: HT-29
Hs-578T = test system: Hs-578T
IGROV-1 = test system: IGROV-1
K562 = test system: K562
KM12 = test system: KM12
LOX IMVI = test system: LOX IMVI
M14 = test system: M14
MCF7 = test system: MCF7
MDA-MB-231 = test system: MDA-MB-231
MDA-MB-435 = test system: MDA-MB-435
MDA-N = test system: MDA-N
MOLT-4 = test system: MOLT-4
Malme-3M = test system: Malme-3M
NCI-H226 = test system: NCI-H226
NCI-H23 = test system: NCI-H23
NCI-H460 = test system: NCI-H460
NCI-H522 = test system: NCI-H522
NCI/ADR-RES = test system: NCI/ADR-RES
OVCAR-3 = test system: OVCAR-3
OVCAR-4 = test system: OVCAR-4
OVCAR-5 = test system: OVCAR-5
OVCAR-8 = test system: OVCAR-8
PC-3 = test system: PC-3
RPMI-8226 = test system: RPMI-8226
RXF 393 = test system: RXF 393
SF-268 = test system: SF-268
SF-295 = test system: SF-295
SF-539 = test system: SF-539
SK-MEL-28 = test system: SK-MEL-28
SK-MEL-2 = test system: SK-MEL-2
SK-MEL-5 = test system: SK-MEL-5
SK-OV-3 = test system: SK-OV-3
SN12C = test system: SN12C
SNB-19 = test system: SNB-19
SNB-75 = test system: SNB-75
SR = test system: SR
SW-620 = test system: SW-620
T47D = test system: T47D
TK-10 = test system: TK-10
U-251 = test system: U-251
UACC-257 = test system: UACC-257
UACC-62 = test system: UACC-62
UO-31 = test system: UO-31
786-0 = test system: 786-0

Structure (SMILES): Fc1c(F)c(F)c(CSc2nc3ccccc3[nH]2)c(F)c1F
- GI50 (A498): > 100 µM (inactive)
- GI50 (A549): > 100 µM (inactive)
- GI50 (ACHN): > 100 µM (inactive)
- GI50 (BT-549): > 100 µM (inactive)
- GI50 (CAKI-1): > 100 µM (inactive)
- GI50 (CCRF-CEM): > 100 µM (inactive)
- GI50 (COLO 205): > 100 µM (inactive)
- GI50 (DU-145): > 100 µM (inactive)
- GI50 (EKVX): > 100 µM (inactive)
- GI50 (HCC 2998): > 100 µM (inactive)
- GI50 (HCT-116): > 100 µM (inactive)
- GI50 (HCT-15): > 100 µM
- GI50 (HL-60): > 100 µM (inactive)
- GI50 (HOP-62): > 100 µM (inactive)
- GI50 (HOP-92): 47 µM (inactive)
- GI50 (HT-29): > 100 µM (inactive)
- GI50 (Hs-578T): > 100 µM (inactive)
- GI50 (IGROV-1): > 100 µM (inactive)
- GI50 (K562): > 100 µM (inactive)
- GI50 (KM12): > 100 µM (inactive)
- GI50 (LOX IMVI): > 100 µM (inactive)
- GI50 (M14): > 100 µM (inactive)
- GI50 (MCF7): > 100 µM (inactive)
- GI50 (MDA-MB-231): > 100 µM (inactive)
- GI50 (MDA-MB-435): > 100 µM (inactive)
- GI50 (MDA-N): > 100 µM (inactive)
- GI50 (MOLT-4): > 100 µM (inactive)
- GI50 (Malme-3M): > 100 µM (inactive)
- GI50 (NCI-H226): > 100 µM (inactive)
- GI50 (NCI-H23): > 100 µM (inactive)
- GI50 (NCI-H460): > 100 µM (inactive)
- GI50 (NCI-H522): > 100 µM (inactive)
- GI50 (NCI/ADR-RES): > 100 µM (inactive)
- GI50 (OVCAR-3): > 100 µM (inactive)
- GI50 (OVCAR-4): > 100 µM (inactive)
- GI50 (OVCAR-5): > 100 µM (inactive)
- GI50 (OVCAR-8): > 100 µM (inactive)
- GI50 (PC-3): > 100 µM (inactive)
- GI50 (RPMI-8226): > 100 µM (inactive)
- GI50 (RXF 393): > 100 µM (inactive)
- GI50 (SF-268): > 100 µM (inactive)
- GI50 (SF-295): > 100 µM (inactive)
- GI50 (SF-539): > 100 µM (inactive)
- GI50 (SK-MEL-28): > 100 µM (inactive)
- GI50 (SK-MEL-2): > 100 µM (inactive)
- GI50 (SK-MEL-5): > 100 µM (inactive)
- GI50 (SK-OV-3): > 100 µM (inactive)
- GI50 (SN12C): > 100 µM (inactive)
- GI50 (SNB-19): > 100 µM (inactive)
- GI50 (SNB-75): > 100 µM (inactive)
- GI50 (SR): 59 µM (inactive)
- GI50 (SW-620): > 100 µM (inactive)
- GI50 (T47D): > 100 µM (inactive)
- GI50 (TK-10): > 100 µM (inactive)
- GI50 (U-251): > 100 µM (inactive)
- GI50 (UACC-257): > 100 µM (inactive)
- GI50 (UACC-62): > 100 µM (inactive)
- GI50 (UO-31): > 100 µM (inactive)

Structure (SMILES): Cc1ccc(N(C=O)c2c([N+](=O)[O-])cc([N+](=O)[O-])c3c2=[N+]([O-])CN=3)cc1
- GI50 (786-0): 27 µM (inactive)
- GI50 (A498): 39.6 µM (inactive)
- GI50 (A549): > 100 µM (inactive)
- GI50 (ACHN): 24.8 µM (inactive)
- GI50 (BT-549): 18.7 µM (inactive)
- GI50 (CAKI-1): 32.3 µM (inactive)
- GI50 (COLO 205): 28.5 µM (inactive)
- GI50 (DU-145): 27.2 µM (inactive)
- GI50 (EKVX): > 100 µM (inactive)
- GI50 (HCC 2998): 14 µM (inactive)
- GI50 (HCT-116): 24.8 µM (inactive)
- GI50 (HCT-15): 15.4 µM
- GI50 (HL-60): 23 µM (inactive)
- GI50 (HOP-62): 60 µM (inactive)
- GI50 (HOP-92): 16.2 µM (inactive)
- GI50 (HT-29): 49 µM (inactive)
- GI50 (Hs-578T): 29 µM (inactive)
- GI50 (IGROV-1): 38.8 µM (inactive)
- GI50 (K562): 27.3 µM (inactive)
- GI50 (KM12): 43.8 µM (inactive)
- GI50 (LOX IMVI): 21.9 µM (inactive)
- GI50 (M14): 20.8 µM (inactive)
- GI50 (MCF7): 21.2 µM (inactive)
- GI50 (MDA-MB-231): 18.5 µM (inactive)
- GI50 (MDA-MB-435): 30.8 µM (inactive)
- GI50 (MDA-N): 27.5 µM (inactive)
- GI50 (MOLT-4): 23.9 µM (inactive)
- GI50 (Malme-3M): 20.3 µM (inactive)
- GI50 (NCI-H226): > 100 µM (inactive)
- GI50 (NCI-H23): 23.5 µM (inactive)
- GI50 (NCI-H460): > 100 µM (inactive)
- GI50 (NCI-H522): 19.2 µM (inactive)
- GI50 (NCI/ADR-RES): 30.7 µM (inactive)
- GI50 (OVCAR-3): 24.2 µM (inactive)
- GI50 (OVCAR-4): 30.9 µM (inactive)
- GI50 (OVCAR-5): > 100 µM (inactive)
- GI50 (OVCAR-8): 28.5 µM (inactive)
- GI50 (PC-3): 20.4 µM (inactive)
- GI50 (RPMI-8226): 20.7 µM (inactive)
- GI50 (RXF 393): 20.7 µM (inactive)
- GI50 (SF-268): 36 µM (inactive)
- GI50 (SF-295): 65.5 µM (inactive)
- GI50 (SF-539): 32 µM (inactive)
- GI50 (SK-MEL-28): 49.4 µM (inactive)
- GI50 (SK-MEL-2): 17.7 µM (inactive)
- GI50 (SK-MEL-5): 13.5 µM (inactive)
- GI50 (SK-OV-3): > 100 µM (inactive)
- GI50 (SN12C): 31.6 µM (inactive)
- GI50 (SNB-19): 66.8 µM (inactive)
- GI50 (SNB-75): 33.7 µM (inactive)
- GI50 (SR): 24.9 µM (inactive)
- GI50 (SW-620): 45.4 µM (inactive)
- GI50 (T47D): 17.5 µM (inactive)
- GI50 (TK-10): 35.9 µM (inactive)
- GI50 (U-251): 28.4 µM (inactive)
- GI50 (UACC-257): 21 µM (inactive)
- GI50 (UACC-62): 11.9 µM (inactive)
- GI50 (UO-31): 29.3 µM (inactive)
